Test results: patent publication US20230165980A1, “METHODS FOR RADIOLABELING PSMA BINDING LIGANDS AND THEIR KITS” (Novartis AG, priority 2020, published 2023)

Assay: Radiochemical purity: non-complexed ^68Ga species by ITLC
Format: physicochemical
Method: Radiochemical Purity: Non-Complexed ^68Ga Species by ITLC
Radical Scavenger to be used for the improvement of the radiochemical stability of ^68Ga-PSMA-11, tests were performed according to a varied approach in order to consider all the parameters that may affect the radiochemical purity of the product (activity, pH, volume, amount of Gentisic Acid).
Stability tests were performed on the freeze dried product containing the final formulation. […] Kits manufactured with the final formulation, indeed, were stored at different stability conditions (2-8° C.; 25° C. and 40° C.) and were tested at different time points for API-assay, Radiochemical Purity and Radiochemical Stability of the radiolabelled product. […]

## ^68Ga-PSMA-11 [[^68Ga] Gallium PSMA-11]
t0 h, Gentisic Acid 0 μg, IRE 17.19 mCi, 1 mL, pH 5.24
  [^68Ga] Not Complexed Species, iTLC: 0.00%
t0 h, Gentisic Acid 200 μg, IRE 17.85 mCi, 1 mL, pH 5.22
  [^68Ga] Not Complexed Species, iTLC: 0.23%
t0 h, Gentisic Acid 200 μg, IRE 18.07 mCi, 1 mL, pH 5.25
  [^68Ga] Not Complexed Species, iTLC: 0.00%
t0 h, Gentisic Acid 200 μg, ITG 35.92 mCi, 4 mL, pH 4.83
  [^68Ga] Not Complexed Species, iTLC: 0.00%
t0 h, Gentisic Acid 400 μg, IRE 17.44 mCi, 1 mL, pH 5.13
  [^68Ga] Not Complexed Species, iTLC: 0.00%
t0 h, Gentisic Acid 400 μg, IRE 17.79 mCi, 1 mL, pH 5.11
  [^68Ga] Not Complexed Species, iTLC: 0.00%
t0 h, Gentisic Acid 400 μg, ITG 16.9 mCi, 4 mL, pH 4.85
  [^68Ga] Not Complexed Species, iTLC: 0.00%
t0 h, Gentisic Acid 400 μg, ITG 31.97 mCi, 4 mL, pH 4.81
  [^68Ga] Not Complexed Species, iTLC: 0.00%
t0 h, Gentisic Acid 1000 μg, E&Z 15.65 mCi, 5 mL, pH 3.75
  [^68Ga] Not Complexed Species, iTLC: 0.00%
t0 h, Gentisic Acid 1000 μg, IRE 17.1 mCi, 1 mL, pH 5.08
  [^68Ga] Not Complexed Species, iTLC: 0.00%
t0 h, Gentisic Acid 1000 μg, ITG 30.9 mCi, 4 mL, pH 4.87
  [^68Ga] Not Complexed Species, iTLC: 0.00%
t0 h, final formulation kit at Release, E&Z 15.65 mCi, 5 mL, pH 3.75
  [^68Ga] Not Complexed Species, iTLC: 0.00%
t0 h, final formulation kit at Release, E&Z 16.80 mCi, 5 mL, pH 3.75
  [^68Ga] Not Complexed Species, iTLC: 0.51%
t0 h, final formulation kit at Release, IRE 32.27 mCi, 1 mL, pH 4.95
  [^68Ga] Not Complexed Species, iTLC: 0.00%
t0 h, final formulation kit at Release, IRE 32.95 mCi, 1 mL, pH 5.07
  [^68Ga] Not Complexed Species, iTLC: 0.00%
t0 h, final formulation kit at Release, ITG 29.74 mCi, 4 mL, pH 4.67
  [^68Ga] Not Complexed Species, iTLC: 0.00%
t0 h, final formulation kit at Release, ITG 30.90 mCi, 4 mL, pH 4.67
  [^68Ga] Not Complexed Species, iTLC: 0.00%
t0 h, kit stored 3 months at 2-8° C., IRE 25.76 mCi, 1 mL, pH 5.29
  [^68Ga] Not Complexed Species, iTLC: 0.00%
t0 h, kit stored 3 months at 25° C., IRE 24.56 mCi, 1 mL, pH 5.16
  [^68Ga] Not Complexed Species, iTLC: 0.00%
t0 h, kit stored 3 months at 40° C., IRE 24.86 mCi, 1 mL, pH 5.23
  [^68Ga] Not Complexed Species, iTLC: 0.00%
t0 h, kit stored 6 months at 2-8° C., IRE 19.90 mCi, 1 mL, pH 5.13
  [^68Ga] Not Complexed Species, iTLC: 0.00%
t0 h, kit stored 6 months at 25° C., IRE 18.88 mCi, 1 mL, pH 5.09
  [^68Ga] Not Complexed Species, iTLC: 0.00%
t0 h, kit stored 6 months at 40° C., IRE 19.34 mCi, 1 mL, pH 5.15
  [^68Ga] Not Complexed Species, iTLC: 0.00%
t4 h, Gentisic Acid 0 μg, IRE 17.19 mCi, 1 mL, pH 5.24
  [^68Ga] Not Complexed Species, iTLC: 0.00%
t4 h, Gentisic Acid 200 μg, IRE 17.85 mCi, 1 mL, pH 5.22
  [^68Ga] Not Complexed Species, iTLC: 0.00%
t4 h, Gentisic Acid 200 μg, IRE 18.07 mCi, 1 mL, pH 5.25
  [^68Ga] Not Complexed Species, iTLC: 0.00%
t4 h, Gentisic Acid 200 μg, ITG 35.92 mCi, 4 mL, pH 4.83
  [^68Ga] Not Complexed Species, iTLC: 0.00%
t4 h, Gentisic Acid 400 μg, IRE 17.44 mCi, 1 mL, pH 5.13
  [^68Ga] Not Complexed Species, iTLC: 0.00%
t4 h, Gentisic Acid 400 μg, IRE 17.79 mCi, 1 mL, pH 5.11
  [^68Ga] Not Complexed Species, iTLC: 0.00%
t4 h, Gentisic Acid 400 μg, ITG 16.9 mCi, 4 mL, pH 4.85
  [^68Ga] Not Complexed Species, iTLC: 0.00%
t4 h, Gentisic Acid 400 μg, ITG 31.97 mCi, 4 mL, pH 4.81
  [^68Ga] Not Complexed Species, iTLC: 0.00%
t4 h, Gentisic Acid 1000 μg, E&Z 15.65 mCi, 5 mL, pH 3.75
  [^68Ga] Not Complexed Species, iTLC: 0.00%
t4 h, Gentisic Acid 1000 μg, IRE 17.1 mCi, 1 mL, pH 5.08
  [^68Ga] Not Complexed Species, iTLC: 0.00%
t4 h, Gentisic Acid 1000 μg, ITG 30.9 mCi, 4 mL, pH 4.87
  [^68Ga] Not Complexed Species, iTLC: 0.00%
t4 h, final formulation kit at Release, E&Z 15.65 mCi, 5 mL, pH 3.75
  [^68Ga] Not Complexed Species, iTLC: 0.00%
t4 h, final formulation kit at Release, E&Z 16.80 mCi, 5 mL, pH 3.75
  [^68Ga] Not Complexed Species, iTLC: 0.00%
t4 h, final formulation kit at Release, IRE 32.27 mCi, 1 mL, pH 4.95
  [^68Ga] Not Complexed Species, iTLC: 0.00%
t4 h, final formulation kit at Release, IRE 32.95 mCi, 1 mL, pH 5.07
  [^68Ga] Not Complexed Species, iTLC: 0.00%
t4 h, final formulation kit at Release, ITG 29.74 mCi, 4 mL, pH 4.67
  [^68Ga] Not Complexed Species, iTLC: 0.00%
t4 h, final formulation kit at Release, ITG 30.90 mCi, 4 mL, pH 4.67
  [^68Ga] Not Complexed Species, iTLC: 0.00%
t4 h, kit stored 3 months at 2-8° C., IRE 25.76 mCi, 1 mL, pH 5.29
  [^68Ga] Not Complexed Species, iTLC: 0.00%
t4 h, kit stored 3 months at 25° C., IRE 24.56 mCi, 1 mL, pH 5.16
  [^68Ga] Not Complexed Species, iTLC: 0.00%
t4 h, kit stored 3 months at 40° C., IRE 24.86 mCi, 1 mL, pH 5.23
  [^68Ga] Not Complexed Species, iTLC: 0.00%
t4 h, kit stored 6 months at 2-8° C., IRE 19.90 mCi, 1 mL, pH 5.13
  [^68Ga] Not Complexed Species, iTLC: 0.00%
t4 h, kit stored 6 months at 25° C., IRE 18.88 mCi, 1 mL, pH 5.09
  [^68Ga] Not Complexed Species, iTLC: 0.00%
t4 h, kit stored 6 months at 40° C., IRE 19.34 mCi, 1 mL, pH 5.15
  [^68Ga] Not Complexed Species, iTLC: 0.00%
